Data taken from US20230372364A1, “METHOD OF TREATING GABA MEDIATED DISORDERS” (Eliem Therapeutics (UK) Ltd, priority 2020, published 2023).
Where two headings read alike, the source gives them in different places.

Columns and labels:
human subjects = settings: cited from earlier work
[1] = human, cited from earlier work
[2] = system: rodent model of depression; experiment: Forced swim test - Depression; type: in vivo; settings: all doses listed in the cell
[3] = human, cited from earlier work; remark: listed apart in the source
[4] = 30 mg, day 7 MAD (MTD), morning dosing

C[C@@]1(O)CC[C@H]2[C@H](CC[C@@H]3[C@@H]2CC[C@]2(C)[C@@H](C(=O)Cn4cc(C#N)cn4)CC[C@@H]32)C1 [Sage-217, zuranolone]
Any adverse event, (%) (human subjects; 20 mg, n-188): (50.0) %
Diarrhea, (%) (human subjects; 20 mg, n-188): (5.9) %
Dizziness, (%) (human subjects; 20 mg, n-188): (7.4) %
Fatigue, (%) (human subjects; 20 mg, n-188): (1.6) %
Headache, (%) (human subjects; 20 mg, n-188): (11.2) %
Nausea, (%) (human subjects; 20 mg, n-188): (5.3) %
Sedation, (%) (human subjects; 20 mg, n-188): (5.9) %
Somnolence, (%) (human subjects; 20 mg, n-188): (5.9) %
Any adverse event, (%) (human subjects; 30 mg, n-192): (54.2) %
Diarrhea, (%) (human subjects; 30 mg, n-192): (6.3) %
Dizziness, (%) (human subjects; 30 mg, n-192): (5.7) %
Fatigue, (%) (human subjects; 30 mg, n-192): (6.8) %
Headache, (%) (human subjects; 30 mg, n-192): (6.3) %
Nausea, (%) (human subjects; 30 mg, n-192): (3.6) %
Sedation, (%) (human subjects; 30 mg, n-192): (4.7) %
Somnolence, (%) (human subjects; 30 mg, n-192): (6.8) %
Tmax ([1]; 55 mg SAD MTD): 1.24 h
SAD MTD ([1]; single ascending dose): SAGE-217 55 mg SAD MTD
Doses in Forced swim test - Depression, * = significantly efficacious dose [2]: 1 - 3* mg/kg
ratio of Cmax/trough on day 7 ([3]; 30 mg daily in the evening in a fed state): 5.88
AUC0-inf [3, 4]: 833.2 ng·h/mL
Cmin [3, 4]: 12.46 ng/mL
Ratio (Cmax/Cmin) [3, 4]: 9.24
MAD MTD ([3]; multiple ascending dose): SAGE-217 30 mg
